Results published in ChEMBL document CHEMBL4152231, “Identification of novel 2-benzyl-1-indanone analogs as interleukin-5 inhibitors” (Eur J Med Chem, 2018).

target: T1, Interleukin-5 (Mus musculus) (UniProt P04401); assay: Inhibition of IL-5 in mouse Y16 cells assessed as reduction in cell proliferation at 30 uM after 48 hrs by WST-1 assay relative to control; assay type: cell-based
T1 sequence (whole entry): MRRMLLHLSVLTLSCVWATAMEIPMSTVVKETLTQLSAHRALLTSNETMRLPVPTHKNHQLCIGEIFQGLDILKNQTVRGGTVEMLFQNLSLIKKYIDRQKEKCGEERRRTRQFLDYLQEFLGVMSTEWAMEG

In order of rising inhibition:
1. COc1ccc(COc2cccc3c2C(=O)/C(=C/c2ccc(O)cc2)C3)cc1  0%
2. COc1ccc(COc2cccc3c2C(=O)/C(=C/c2ccccc2)C3)cc1  5%
3. COc1ccc(/C=C2\Cc3cccc(OCC4CCCCC4)c3C2=O)cc1  5.6%
4. COc1ccc(/C=C2\Cc3cccc(OCc4ccc(OC)cc4)c3C2=O)cc1  6%
5. O=C1c2c(cccc2OCC2CCCCC2)CC1Cc1ccccc1O (stereo unspecified)  13%
6. COc1ccc(COc2cccc3c2C(=O)/C(=C/c2ccc(C)cc2)C3)cc1  17%
7. COCOc1ccc(/C=C2\Cc3cccc(OCC4CCCCC4)c3C2=O)cc1  23.5%
8. COc1ccc(/C=C2\Cc3cccc(O)c3C2=O)cc1  25%
9. COc1ccc(COc2cccc3c2C(=O)/C(=C/c2ccc(Cl)cc2)C3)cc1  29%
10. O=C1c2c(O)cccc2CC1Cc1ccc(O)cc1 (stereo unspecified)  30%
11. O=C1/C(=C/c2ccc(O)cc2)Cc2cccc(OCc3ccc([N+](=O)[O-])cc3)c21  32%
12. O=C1/C(=C/c2ccc(O)cc2)Cc2cccc(O)c21  35%
13. O=C1/C(=C/c2ccccc2)Cc2cccc(O)c21  40%
14. COc1ccc(CC2Cc3cccc(OCC4CCCCC4)c3C2=O)cc1 (stereo unspecified)  44%
15. O=C1c2c(cccc2OCCc2ccccc2)CC1Cc1ccccc1O (stereo unspecified)  47%
16. O=C1/C(=C/c2ccc(O)cc2)Cc2cccc(OCC3CCCCC3)c21  47%
17. O=C1c2c(cccc2OCCc2ccccc2)CC1Cc1ccc(O)cc1 (stereo unspecified)  59%
18. O=C1c2c(cccc2OCCc2ccccc2)CC1Cc1cccc(O)c1 (stereo unspecified)  60.5%
19. Cc1ccc(CC2Cc3cccc(OCC4CCCCC4)c3C2=O)cc1 (stereo unspecified)  68%
20. O=C1c2c(cccc2OCC2CCCCC2)CC1Cc1ccc(Cl)cc1 (stereo unspecified)  70%
21. O=C1c2c(cccc2OCc2ccccc2)CC1Cc1ccc(O)cc1 (stereo unspecified)  70%
22. O=C1c2c(cccc2OCCC2CCCCC2)CC1Cc1ccc(O)cc1 (stereo unspecified)  78%
23. COCOc1ccc(CC2Cc3cccc(OCC4CCCCC4)c3C2=O)cc1 (stereo unspecified)  90%
24. O=C1c2c(cccc2OCC2CCCCC2)CC1Cc1cccc(O)c1 (stereo unspecified)  95%
25. O=c1c(Cc2ccc(O)cc2)coc2cccc(OCC3CCCCC3)c12  96%
26. O=C1c2c(cccc2OCC2CCCCC2)CC1Cc1ccc(O)cc1 (stereo unspecified)  100%
